Assay results: PubChem BioAssay (NCI)
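Cultured in 96-well plates, cells were exposed to test compound for 48 hours across five concentrations. GI50 = concentration required for 50% inhibition of growth. TGI: total growth inhibition.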

Legend:
Test in all cases: NCI-60 cell line screen, 48 h
786-0 renal = test system: 786-0 renal
A498 renal = test system: A498 renal
A549 NSCLC = test system: A549 NSCLC
ACHN renal = test system: ACHN renal
BT-549 breast = test system: BT-549 breast
CAKI-1 renal = test system: CAKI-1 renal
CCRF-CEM leukemia = test system: CCRF-CEM leukemia
COLO 205 colon = test system: COLO 205 colon
DU-145 prostate = test system: DU-145 prostate
EKVX NSCLC = test system: EKVX NSCLC
HCC-2998 colon = test system: HCC-2998 colon
HCT-116 colon = test system: HCT-116 colon
HCT-15 colon = test system: HCT-15 colon
HL-60(TB) leukemia = test system: HL-60(TB) leukemia
HOP-62 NSCLC = test system: HOP-62 NSCLC
HOP-92 NSCLC = test system: HOP-92 NSCLC
HT29 colon = test system: HT29 colon
IGROV1 ovarian = test system: IGROV1 ovarian
K-562 leukemia = test system: K-562 leukemia
KM12 colon = test system: KM12 colon
LOX IMVI melanoma = test system: LOX IMVI melanoma
MALME-3M melanoma = test system: MALME-3M melanoma
MCF7 breast = test system: MCF7 breast
MDA-MB-231 breast = test system: MDA-MB-231 breast
MDA-MB-468 breast = test system: MDA-MB-468 breast
MOLT-4 leukemia = test system: MOLT-4 leukemia
NCI-H226 lung = test system: NCI-H226 lung
NCI-H23 lung = test system: NCI-H23 lung
NCI-H460 lung = test system: NCI-H460 lung
NCI-H522 lung = test system: NCI-H522 lung
OVCAR-3 ovarian = test system: OVCAR-3 ovarian
OVCAR-4 ovarian = test system: OVCAR-4 ovarian
OVCAR-5 ovarian = test system: OVCAR-5 ovarian
OVCAR-8 ovarian = test system: OVCAR-8 ovarian
PC-3 prostate = test system: PC-3 prostate
RPMI-8226 leukemia = test system: RPMI-8226 leukemia
RXF 393 renal = test system: RXF 393 renal
SF-268 CNS = test system: SF-268 CNS
SF-295 CNS = test system: SF-295 CNS
SF-539 CNS = test system: SF-539 CNS
SK-MEL-28 melanoma = test system: SK-MEL-28 melanoma
SK-MEL-5 melanoma = test system: SK-MEL-5 melanoma
SK-OV-3 ovarian = test system: SK-OV-3 ovarian
SN12C renal = test system: SN12C renal
SNB-19 CNS = test system: SNB-19 CNS
SNB-75 CNS = test system: SNB-75 CNS
SR leukemia = test system: SR leukemia
SW-620 colon = test system: SW-620 colon
T-47D breast = test system: T-47D breast
TK-10 renal = test system: TK-10 renal
U251 CNS = test system: U251 CNS
UACC-257 melanoma = test system: UACC-257 melanoma
UACC-62 melanoma = test system: UACC-62 melanoma
UO-31 renal = test system: UO-31 renal

In the case of `COc1cccc(C(N)=Nc2ccc(OCCCCCCn3cncn3)cc2)c1`, the GI50 (786-0 renal) is reported as 0.628 µM, the TGI (786-0 renal) is reported as greater than 100 µM and the GI50 (A498 renal) is reported as 26.1 µM. It also gave a TGI (A498 renal) greater than 100 µM, a GI50 (A549 NSCLC) of 2.86 µM and a TGI (A549 NSCLC) greater than 100 µM. The GI50 (ACHN renal) was 4.26 µM, the TGI (ACHN renal) was greater than 100 µM and the GI50 (BT-549 breast) was 0.957 µM. For the same compound, the TGI (BT-549 breast) was greater than 100 µM, the GI50 (CAKI-1 renal) was 0.909 µM and the TGI (CAKI-1 renal) was greater than 100 µM. It also gave a GI50 (CCRF-CEM leukemia) of 1.04 µM, a TGI (CCRF-CEM leukemia) greater than 100 µM and a GI50 (COLO 205 colon) of 1.75 µM. For the same compound, the TGI (COLO 205 colon) was 10.3 µM, the GI50 (DU-145 prostate) was 3.05 µM and the TGI (DU-145 prostate) was 51.6 µM. The GI50 (EKVX NSCLC) was 2.92 µM, the TGI (EKVX NSCLC) was greater than 100 µM and the GI50 (HCC-2998 colon) was 2.78 µM. For the same compound, the TGI (HCC-2998 colon) was greater than 100 µM, the GI50 (HCT-116 colon) was 0.439 µM and the TGI (HCT-116 colon) was greater than 100 µM. For the same compound, the GI50 (HCT-15 colon) was 2.43 µM, the TGI (HCT-15 colon) was greater than 100 µM and the GI50 (HL-60(TB) leukemia) was 0.567 µM. It also gave a TGI (HL-60(TB) leukemia) of 42.9 µM, a GI50 (HOP-62 NSCLC) of 4.13 µM and a TGI (HOP-62 NSCLC) greater than 100 µM. For the same compound, the GI50 (HOP-92 NSCLC) was 4.13 µM, the TGI (HOP-92 NSCLC) was greater than 100 µM and the GI50 (HT29 colon) was 1.23 µM. For the same compound, the TGI (HT29 colon) was 5.07 µM, the GI50 (IGROV1 ovarian) was 3.53 µM and the TGI (IGROV1 ovarian) was greater than 100 µM. For the same compound, the GI50 (K-562 leukemia) was 0.475 µM, the TGI (K-562 leukemia) was greater than 100 µM and the GI50 (KM12 colon) was 1.54 µM. It also gave a TGI (KM12 colon) greater than 100 µM, a GI50 (LOX IMVI melanoma) of 2.78 µM and a TGI (LOX IMVI melanoma) greater than 100 µM. The GI50 (MALME-3M melanoma) was 1.57 µM, the TGI (MALME-3M melanoma) was greater than 100 µM and the GI50 (MCF7 breast) was 0.465 µM. For the same compound, the TGI (MCF7 breast) was greater than 100 µM, the GI50 (MDA-MB-231 breast) was 1.7 µM and the TGI (MDA-MB-231 breast) was 57.6 µM. It also gave a GI50 (MDA-MB-468 breast) of 0.429 µM, a TGI (MDA-MB-468 breast) greater than 100 µM and a GI50 (MOLT-4 leukemia) of 3.19 µM. The TGI (MOLT-4 leukemia) was greater than 100 µM, the GI50 (NCI-H226 lung) was 2.67 µM and the TGI (NCI-H226 lung) was 9.75 µM. The GI50 (NCI-H23 lung) was 3.44 µM, the TGI (NCI-H23 lung) was greater than 100 µM and the GI50 (NCI-H460 lung) was 1.18 µM. It also gave a TGI (NCI-H460 lung) of 22.1 µM, a GI50 (NCI-H522 lung) of 1.08 µM and a TGI (NCI-H522 lung) of 3.96 µM. The GI50 (OVCAR-3 ovarian) was 0.601 µM, the TGI (OVCAR-3 ovarian) was 3.36 µM and the GI50 (OVCAR-4 ovarian) was 12.8 µM. The TGI (OVCAR-4 ovarian) was greater than 100 µM, the GI50 (OVCAR-5 ovarian) was 3.18 µM and the TGI (OVCAR-5 ovarian) was greater than 100 µM. The GI50 (OVCAR-8 ovarian) was 3.16 µM, the TGI (OVCAR-8 ovarian) was 28.1 µM and the GI50 (PC-3 prostate) was 1.86 µM. For the same compound, the TGI (PC-3 prostate) was greater than 100 µM, the GI50 (RPMI-8226 leukemia) was 2.82 µM and the TGI (RPMI-8226 leukemia) was greater than 100 µM. For the same compound, the GI50 (RXF 393 renal) was 2.3 µM, the TGI (RXF 393 renal) was greater than 100 µM and the GI50 (SF-268 CNS) was 4.3 µM. For the same compound, the TGI (SF-268 CNS) was 86.2 µM, the GI50 (SF-295 CNS) was 1.5 µM and the TGI (SF-295 CNS) was 30.7 µM. The GI50 (SF-539 CNS) was 1.61 µM, the TGI (SF-539 CNS) was 4.82 µM and the GI50 (SK-MEL-28 melanoma) was 4.6 µM. The TGI (SK-MEL-28 melanoma) was greater than 100 µM, the GI50 (SK-MEL-5 melanoma) was 1.47 µM and the TGI (SK-MEL-5 melanoma) was 10.2 µM. The GI50 (SK-OV-3 ovarian) was 4.69 µM, the TGI (SK-OV-3 ovarian) was greater than 100 µM and the GI50 (SN12C renal) was 3.61 µM. The TGI (SN12C renal) was greater than 100 µM, the GI50 (SNB-19 CNS) was 4.45 µM and the TGI (SNB-19 CNS) was greater than 100 µM. The GI50 (SNB-75 CNS) was 1.91 µM, the TGI (SNB-75 CNS) was greater than 100 µM and the GI50 (SR leukemia) was 0.537 µM. For the same compound, the TGI (SR leukemia) was greater than 100 µM, the GI50 (SW-620 colon) was 0.537 µM and the TGI (SW-620 colon) was greater than 100 µM. The GI50 (T-47D breast) was 3.32 µM, the TGI (T-47D breast) was greater than 100 µM and the GI50 (TK-10 renal) was 6.48 µM. The TGI (TK-10 renal) was greater than 100 µM, the GI50 (U251 CNS) was 3.61 µM and the TGI (U251 CNS) was greater than 100 µM. For the same compound, the GI50 (UACC-257 melanoma) was 8.67 µM, the TGI (UACC-257 melanoma) was greater than 100 µM and the GI50 (UACC-62 melanoma) was 2.06 µM. It also gave a TGI (UACC-62 melanoma) greater than 100 µM, a GI50 (UO-31 renal) of 4.51 µM and a TGI (UO-31 renal) greater than 100 µM.
